Experimental data from patent publication US20230072683A1, “PYRIDO-PYRIMIDIN DERIVATIVES AND PHARMACEUTICAL COMPOSITION, FOR USE IN PREVENTING OR TREATING PI3 KINASE RELATED DISEASES, COMPRISING SAME AS ACTIVE INGREDIENT” (BORYUNG PHARMACEUTICAL CO., LTD, priority 2019, published 2023).
Like-named read-outs stand apart in the source and are kept apart here.

Columns and labels:
DNA-PK(h) = DNA-PK(h) (Homo sapiens, UniProt P78527); test: Evaluation of inhibitory activity against DNA-PK (HTRF kinase assay, GST-cMyc-p53 substrate); format: biochemical; settings: for inhibition at 0.01 µM: compound concentration 0.01 μM, read-out: EXP_VALUE(% Inhibition) DNA-PK(h) 0.01 μM; for inhibition at 0.1 µM: read-out: EXP_VALUE(% Inhibition) DNA-PK(h) 0.1 μM
In short: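 Human DNA-PK with 50 μM GST-cMyc-p53 substrate; reaction started with Mg/ATP, run 30 min at room temperature, stopped with EDTA. Phospho-Ser15 p53 detected by HTRF (Eu anti-phospho-Ser15, d2 anti-GST), signal = 10000×(Em 665/Em 620).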

[1] = target: PI3K-δ (PI3K(p1108/p857) (h)) (Homo sapiens, UniProt O00329); test: Evaluation of inhibitory activity against PI3K-δ (HTRF kinase assay); format: biochemical; settings: for inhibition at 0.01 µM: compound concentration 0.01 μM, read-out: EXP_VALUE(% Inhibition) PI3K-δ 0.01 μM; for inhibition at 0.1 µM: read-out: EXP_VALUE(% Inhibition) PI3K-δ 0.1 μM
In short: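 HTRF read-out (665/620 nm ratio ×10000) used Eu-labelled anti-GST, GST-tagged GRP1 PH domain and streptavidin-allophycocyanin after EDTA/PIP3 stop.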

Chain of PI3K-δ (PI3K(p1108/p857) (h)) (O00329 whole entry, the tested form may be a part): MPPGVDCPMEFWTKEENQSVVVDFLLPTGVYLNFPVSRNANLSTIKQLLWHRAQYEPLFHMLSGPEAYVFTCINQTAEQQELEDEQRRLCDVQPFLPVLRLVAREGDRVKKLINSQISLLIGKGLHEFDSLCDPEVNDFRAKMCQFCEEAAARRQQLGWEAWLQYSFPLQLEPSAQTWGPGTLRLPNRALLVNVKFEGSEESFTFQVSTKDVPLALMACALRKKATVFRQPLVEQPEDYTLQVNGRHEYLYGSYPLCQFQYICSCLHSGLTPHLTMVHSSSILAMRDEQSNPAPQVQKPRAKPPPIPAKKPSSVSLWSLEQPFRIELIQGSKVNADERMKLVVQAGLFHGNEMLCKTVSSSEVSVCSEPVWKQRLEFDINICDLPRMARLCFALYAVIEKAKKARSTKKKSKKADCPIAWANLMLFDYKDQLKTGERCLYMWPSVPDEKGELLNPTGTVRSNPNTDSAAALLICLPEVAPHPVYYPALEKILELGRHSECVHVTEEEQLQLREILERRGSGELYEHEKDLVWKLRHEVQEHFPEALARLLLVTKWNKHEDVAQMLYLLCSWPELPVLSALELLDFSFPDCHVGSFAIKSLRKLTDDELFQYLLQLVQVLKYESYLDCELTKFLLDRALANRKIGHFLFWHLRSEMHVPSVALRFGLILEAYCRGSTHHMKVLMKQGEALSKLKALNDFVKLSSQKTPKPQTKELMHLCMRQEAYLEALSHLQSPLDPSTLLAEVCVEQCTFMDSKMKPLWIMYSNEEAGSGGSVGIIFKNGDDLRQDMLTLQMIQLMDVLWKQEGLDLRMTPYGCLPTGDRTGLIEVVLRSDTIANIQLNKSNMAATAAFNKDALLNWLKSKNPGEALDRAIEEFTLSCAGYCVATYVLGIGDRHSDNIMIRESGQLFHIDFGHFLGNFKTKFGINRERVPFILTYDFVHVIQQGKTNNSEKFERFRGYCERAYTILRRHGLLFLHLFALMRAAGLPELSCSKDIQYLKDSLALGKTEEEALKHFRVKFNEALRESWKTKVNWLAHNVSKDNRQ
Chain of PI3K-δ (PI3K(p1108/p857) (h)) (P27986 whole entry partner, the tested form may be a part): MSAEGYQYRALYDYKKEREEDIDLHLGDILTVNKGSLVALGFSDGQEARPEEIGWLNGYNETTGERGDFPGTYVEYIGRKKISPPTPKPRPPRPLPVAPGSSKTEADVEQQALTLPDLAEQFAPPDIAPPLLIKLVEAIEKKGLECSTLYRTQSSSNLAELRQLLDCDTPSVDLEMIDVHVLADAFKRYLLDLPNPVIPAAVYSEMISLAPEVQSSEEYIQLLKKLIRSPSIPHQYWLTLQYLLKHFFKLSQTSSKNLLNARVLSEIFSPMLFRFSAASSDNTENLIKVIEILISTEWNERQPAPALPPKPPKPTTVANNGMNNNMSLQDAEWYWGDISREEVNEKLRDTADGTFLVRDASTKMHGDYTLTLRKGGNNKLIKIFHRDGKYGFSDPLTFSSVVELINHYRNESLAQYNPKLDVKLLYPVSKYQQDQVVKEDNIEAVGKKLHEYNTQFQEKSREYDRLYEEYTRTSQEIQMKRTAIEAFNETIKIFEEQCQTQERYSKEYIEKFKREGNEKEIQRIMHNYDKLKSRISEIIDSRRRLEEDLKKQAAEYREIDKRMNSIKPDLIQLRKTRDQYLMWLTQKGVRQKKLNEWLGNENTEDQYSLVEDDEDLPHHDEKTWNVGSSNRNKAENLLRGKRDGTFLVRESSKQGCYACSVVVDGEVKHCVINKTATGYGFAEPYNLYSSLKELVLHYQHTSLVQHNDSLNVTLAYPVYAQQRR

Row | Compound | inhibition at 0.01 µM (DNA-PK(h)) [%] | inhibition at 0.01 µM [1] [%] | inhibition at 0.1 µM (DNA-PK(h); compound concentration 0.1 μM) [%] | inhibition at 0.1 µM ([1]; compound concentration 0.1 μM) [%] | inhibition at 0.1 µM (DNA-PK(h); compound at 0.1 μM) [%] | inhibition at 0.1 µM ([1]; compound at 0.1 μM) [%]
1 | C[C@H](Nc1ncnc2[nH]ccc(=O)c12)c1c(Cl)c2cccc(-c3cnc(C(F)(F)F)nc3)c2c(=O)n1-c1ccccc1 [Example 153, (S)-4-((1-(4-chloro-1-oxo-2-phenyl-8-(2-(trifluoromethyl)pyrimidin-5-yl)-1,2-dihydroisoquinolin-3-yl)ethyl)amino)pyrido[2,3-d]pyrimidin-5(8H)-one] | 46 | 77 | – | – | – | –
2 | C[C@H](Nc1ncnc2[nH]ccc(=O)c12)c1c(Cl)c2cccc(N3Cc4ccccc4C3)c2c(=O)n1-c1ccccc1 [Example 340, (S)-4-((1-(4-chloro-8-(isoindolin-2-yl)-1-oxo-2-phenyl-1,2-dihydroisoquinolin-3-yl)ethyl)amino)pyrido[2,3-d]pyrimidin-5(8H)-one] | 21 | 43 | 67 | 91 | – | –
3 | C[C@H](Nc1ncnc2[nH]ccc(=O)c12)c1c(Cl)c2cccc(-c3ccc4ocnc4c3)c2c(=O)n1-c1ccccc1 [Example 241, (S)-4-((1-(8-(benzo[d]oxazol-5-yl)-4-chloro-1-oxo-2-phenyl-1,2-dihydroisoquinolin-3-yl)ethyl)amino)pyrido[2,3-d]pyrimidin-5(8H)-one] | 49 | 32 | – | – | – | –
4 | C[C@H](Nc1ncnc2[nH]ccc(=O)c12)c1c(Cl)c2cccc(Sc3ccc(Cl)cc3)c2c(=O)n1-c1ccccc1 [Example 371, (S)-4-((1-(4-chloro-8-((4-chlorophenyl)thio)-1-oxo-2-phenyl-1,2-dihydroisoquinolin-3-yl)ethyl)amino)pyrido[2,3-d]pyrimidin-5(8H)-one] | 0 | 2 | 4 | 10 | – | –
5 | C[C@H](Nc1ncnc2[nH]ccc(=O)c12)c1c(Cl)c2cccc(C(N)=O)c2c(=O)n1-c1ccccc1 [Example 291, (S)-4-chloro-1-oxo-3-(1-((5-oxo-5,8-dihydropyrido[2,3-d]pyrimidin-4-yl)amino)ethyl)-2-phenyl-1,2-dihydroisoquinoline-8-carboxamide] | 31 | 91 | 78 | 101 | – | –
6 | CSc1ncc(-c2cccc3c(Cl)c([C@H](C)Nc4ncnc5[nH]ccc(=O)c45)n(-c4ccccc4)c(=O)c23)cn1 [Example 214, (S)-4-((1-(4-chloro-8-(2-(methylthio)pyrimidin-5-yl)-1-oxo-2-phenyl-1,2-dihydroisoquinolin-3-yl)ethyl)amino)pyrido[2,3-d]pyrimidin-5(8H)-one] | 70 | 99 | – | – | – | –
7 | C[C@H](Nc1ncnc2[nH]ccc(=O)c12)c1c(Cl)c2cccc(C#Cc3ccncc3)c2c(=O)n1-c1ccccc1 [Example 306, (S)-4-((1-(4-chloro-1-oxo-2-phenyl-8-(pyridin-4-ylethynyl)-1,2-dihydroisoquinolin-3-yl)ethyl)amino)pyrido[2,3-d]pyrimidin-5(8H)-one] | 75 | 57 | 95 | 105 | – | –
8 | C[C@H](Nc1ncnc2[nH]ccc(=O)c12)c1c(Cl)c2cccc(-c3ccc(C4CCC4)cc3)c2c(=O)n1-c1ccccc1 [Example 118, (S)-4-((1-(4-chloro-8-(4-cyclobutylphenyl)-1-oxo-2-phenyl-1,2-dihydroisoquinolin-3-yl)ethyl)amino)pyrido[2,3-d]pyrimidin-5(8H)-one] | 26 | 29 | 74 | 81 | – | –
9 | CC(=O)Nc1cccc2c(Cl)c([C@H](C)Nc3ncnc4[nH]ccc(=O)c34)n(-c3ccccc3)c(=O)c12 [Example 296, (S)—N-(4-chloro-1-oxo-3-(1-((5-oxo-5,8-dihydropyrido[2,3-d]pyrimidin-4-yl)amino)ethyl)-2-phenyl-1,2-dihydroisoquinolin-8-yl) acetamide] | 30 | 46 | – | – | – | –
10 | COc1cc(-c2cccc3c(Cl)c([C@H](C)Nc4ncnc5[nH]ccc(=O)c45)n(-c4ccccc4)c(=O)c23)nc(OC)n1 [Example 49, (S)-4-((1-(4-chloro-8-(2,6-dimethoxypyrimidin-4-yl)-1-oxo-2-phenyl-1,2-dihydroisoquinolin-3-yl)ethyl)amino)pyrido[2,3-d]pyrimidin-5(8H)-one] | -3 | 23 | – | – | – | –
11 | C[C@H](Nc1ncnc2[nH]ccc(=O)c12)c1c(Cl)c2cccc(Sc3ccc(F)cc3)c2c(=O)n1-c1ccccc1 [Example 398, (S)-4-((1-(4-chloro-8-((4-fluorophenyl)thio)-1-oxo-2-phenyl-1,2-dihydroisoquinolin-3-yl)ethyl)amino)pyrido[2,3-d]pyrimidin-5(8H)-one] | – | – | – | – | 3 | 7
12 | C[C@H](Nc1ncnc2[nH]ccc(=O)c12)c1c(Cl)c2cccc(SC(C)(C)C)c2c(=O)n1-c1ccccc1 [Example 426, (S)-4-((1-(8-(tert-butylthio)-4-chloro-1-oxo-2-phenyl-1,2-dihydroisoquinolin-3-yl)ethyl)amino)pyrido[2,3-d]pyrimidin-5(8H)-one] | – | – | – | – | 8 | 12

More lines, now with the values ahead:

Row | inhibition at 0.01 µM (DNA-PK(h)) [%] | inhibition at 0.01 µM [1] [%] | inhibition at 0.1 µM (DNA-PK(h); compound concentration 0.1 μM) [%] | inhibition at 0.1 µM ([1]; compound concentration 0.1 μM) [%] | inhibition at 0.1 µM (DNA-PK(h); compound at 0.1 μM) [%] | inhibition at 0.1 µM ([1]; compound at 0.1 μM) [%] | Compound
13 | 74 | 94 | – | – | – | – | C[C@H](Nc1ncnc2[nH]ccc(=O)c12)c1c(Cl)c2cccc(-c3ccc4c(c3)OCO4)c2c(=O)n1-c1ccccc1 [Example 60, (S)-4-((1-(8-(benzo[d][1,3]dioxol-5-yl)-4-chloro-1-oxo-2-phenyl-1,2-dihydroisoquinolin-3-yl)ethyl)amino)pyrido[2,3-d]pyrimidin-5(8H)-one]
14 | 7 | 24 | – | – | – | – | C[C@H](Nc1ncnc2[nH]ccc(=O)c12)c1c(Cl)c2cccc(-c3ccc(-c4noc(C(C)(C)C)n4)cc3)c2c(=O)n1-c1ccccc1 [Example 161, (S)-4-((1-(8-(4-(5-(tert-butyl)-1,2,4-oxadiazol-3-yl)phenyl)-4-chloro-1-oxo-2-phenyl-1,2-dihydroisoquinolin-3-yl)ethyl)amino)pyrido[2,3-d]pyrimidin-5(8H)-one]
15 | 10 | 38 | – | – | – | – | C[C@H](Nc1ncnc2[nH]ccc(=O)c12)c1c(Cl)c2cccc(-c3cccc4cn[nH]c34)c2c(=O)n1-c1ccccc1 [Example 239, (S)-4-((1-(4-chloro-8-(1H-indazol-7-yl)-1-oxo-2-phenyl-1,2-dihydroisoquinolin-3-yl)ethyl)amino)pyrido[2,3-d]pyrimidin-5(8H)-one]
16 | 25 | 74 | 74 | 95 | – | – | C[C@H](Nc1ncnc2[nH]ccc(=O)c12)c1c(Cl)c2cccc(-c3cc4ccccc4o3)c2c(=O)n1-c1ccccc1 [Example 6, (S)-4-((1-(8-(benzofuran-2-yl)-4-chloro-1-oxo-2-phenyl-1,2-dihydroisoquinolin-3-yl)ethyl)amino)pyrido[2,3-d]pyrimidin-5(8H)-one]
17 | 23 | 44 | – | – | – | – | CCCSc1ccc(-c2cccc3c(Cl)c([C@H](C)Nc4ncnc5[nH]ccc(=O)c45)n(-c4ccccc4)c(=O)c23)cc1 [Example 151, (S)-4-((1-(4-chloro-1-oxo-2-phenyl-8-(4-(propylthio)phenyl)-1,2-dihydroisoquinolin-3-yl)ethyl)amino)pyrido[2,3-d]pyrimidin-5(8H)-one]
18 | – | – | – | – | 5 | 16 | C[C@H](Nc1ncnc2[nH]ccc(=O)c12)c1c(Cl)c2cccc(-c3cnc(F)nc3)c2c(=O)n1-c1ccccc1 [Example 382, (S)-4-((1-(4-chloro-8-(2-fluoropyrimidin-5-yl)-1-oxo-2-phenyl-1,2-dihydroisoquinolin-3-yl)ethyl)amino)pyrido[2,3-d]pyrimidin-5(8H)-one]
19 | 99 | 70 | – | – | – | – | C[C@H](Nc1ncnc2[nH]ccc(=O)c12)c1c(Cl)c2cccc(-c3ccc(-c4nccs4)cc3)c2c(=O)n1-c1ccccc1 [Example 29, (S)-4-((1-(4-chloro-1-oxo-2-phenyl-8-(4-(thiazol-2-yl)phenyl)-1,2-dihydroisoquinolin-3-yl)ethyl)amino)pyrido[2,3-d]pyrimidin-5(8H)-one]
20 | 73 | 93 | – | – | – | – | C[C@H](Nc1ncnc2[nH]ccc(=O)c12)c1c(Cl)c2cccc(-c3cn[nH]c3)c2c(=O)n1-c1ccccc1 [Example 227, (S)-4-((1-(4-chloro-1-oxo-2-phenyl-8-(1H-pyrazol-4-yl)-1,2-dihydroisoquinolin-3-yl)ethyl)amino)pyrido[2,3-d]pyrimidin-5(8H)-one]
21 | 78 | 92 | 97 | 96 | – | – | C[C@H](Nc1ncnc2[nH]ccc(=O)c12)c1c(Cl)c2cccc(-c3cnc(N(C)C)nc3)c2c(=O)n1-c1ccccc1 [Example 112, (S)-4-((1-(4-chloro-8-(2-(dimethylamino)pyrimidin-5-yl)-1-oxo-2-phenyl-1,2-dihydroisoquinolin-3-yl)ethyl)amino)pyrido[2,3-d]pyrimidin-5(8H)-one]
